These results are taken from patent US8507473B2, “3H-imidazo[4,5-b]pyridin-5-ol derivatives useful in the treatment of GPR81 receptor disorders” (Arena Pharmaceuticals, Inc., priority 2008, dated 2013).

pEC50: −log10 of the molar value.

Test [1] concerns the target T1, GPR81 (Homo sapiens, UniProt Q9BXC0).
T1 construct: expressed in transfected cells; host or cells: CHO-K1 (ATCC CCL-61), recombinant, stably transfected
The test is described as follows: HTRF assay for direct cAMP measurement. The format is cell-based. To be noted: CHO-K1 cells stably transfected with GPR81, forskolin-stimulated cAMP. The source says: Compounds were screened for agonists of GPR81 (e.g., human GPR81) using an HTRF® assay for direct cAMP measurement (Gabriel et al, ASSAY and Drug Development Technologies, 1:291-303, 2003) and recombinant CHO-K1 cells stably transfected with GPR81. CHO-K1 cells were obtained from ATCC® (Manassas, Va.; Catalog #CCL-61). An agonist of GPR81 was detected in the HTRF® assay for direct cAMP measurement as a compound which decreased cAMP concentration. The HTRF® assay also was used to determine EC50 values for GPR81 agonists.
The HTRF® assay kit was purchased from Cisbio-US, Inc. (Bedford, Mass.; Catalog #62AM4PEC). The HTRF® assay supported by the kit is a competitive immunoassay between endogenous cAMP produced by the CHO-K1 cells and tracer cAMP labeled with the dye d2. The tracer binding is visualized by a monoclonal anti-cAMP antibody labeled with Cryptate. The specific signal (i.e., fluorescence resonance energy transfer, FRET) is inversely proportional to the concentration of unlabeled cAMP in the standard or sample.
The fluorescence ratio of the samples (test compound or compound buffer) was calculated and used to deduce respective cAMP concentrations by reference to the cAMP standard curve.
The HTRF® assay was carried out using a two-step protocol essentially according to the kit manufacturer's instructions, in 20 μL total volume per well in 384-well plate format (ProxiPlates; PerkinElmer, Fremont, Calif.; catalog #6008280). To each of the experimental wells was transferred 1000 recombinant CHO-K1 cells in 5 μL phosphate buffered saline containing calcium chloride and magnesium chloride (“PBS+”; Invitrogen, Carlsbad, Calif.; catalog #14040) supplemented with IBMX (100 μM) (phosphodiesterase inhibitors; Sigma-Aldrich, St. Louis, Mo.; catalog #I-5879), followed by test compound in 5 μL compound buffer (PBS+ supplemented with 10 μM forskolin (Sigma-Aldrich, St. Louis, Mo.; catalog #F-6886)). The plate was then incubated at room temperature for 1 hour. To each well was then added 5 μl cAMP-d2 conjugate in lysis buffer and 5 μL Cryptate conjugate in lysis buffer according to the kit manufacturer's instructions. The plate was then further incubated at room temperature for 1 hour, after which the assay plate was read.
HTRF® readout was accomplished using a PHERAstar (BMG LABTECH Inc., Durham, N.C.) or EnVision™ (PerkinElmer, Fremont Calif.) microplate reader.
(In general: Time-resolved FRET reads energy transfer from a long-lived donor to a nearby acceptor.)

In test [2] the test system is rat epididymal adipocytes. The test is described as follows: Glycerol assay (rat adipocyte lipolysis). It is filed as cell-based. To be noted: rat epididymal adipocytes in vitro, FIG. 5. As to the method: Free glycerol was determined using a free glycerol reagent, Reagent A (Sigma). Adipocyte media (10 μL) was removed and replated in a flat-bottom 96-well plate. Reagent A (100 μL) was then added to each well. After 10-15 minutes, abroad sorbance was read at OD540 on a Spectramax 340PC microplate reader (Molecular Devices). The amount of glycerol released was calculated based on regression analysis of known glycerol concentrations using a glycerol standard (Sigma).
Epididymal fat pads were surgically removed from CO2-anesthetized male Sprague Dawley rats, weighing 300-500 g. The adipose tissue was minced and suspended in Krebroad s-Ringer bicarbonate HEPES buffer (containing […], […] (monobasic), […] MgSO4.7H2O, […] CaCl2, 1 mM NaHCO3, 3 mM HEPES, 200 nM adenosine, and 1% BSA) with 2.5 mg of collagenase (Sigma) per gram of tissue. The suspension was incubated in an orbital shaker at 37° C. for 40 minutes with constant agitation. Cells were then filtered through a 500 μm mesh filter. For each filter used, 10 mL of buffer was added to the cell suspension to aid with the filtration. Cells were spun at 1000 rpm for 1 minute. A glass Pasteur pipette was then used to remove all buffer remaining below the floating adipocyte layer. Approximately 30 mL of new buffer was then added to the adipocytes and they were incubated for 5 minutes at 37° C. […]

The subject of test [3] is Male Sprague Dawley rats. The test is described as follows: NEFA assay, circulating free fatty acids in rats. It is filed as in vivo, rat. As to conditions: after injection of 100 mpk, FIG. 6. As to the method:
(§1) The supplied standard was diluted with DI water to 1, 0.5, 0.25, 0.125, 0.0625, 0.03125. A water blank was also prepared. Serum samples and standards were dispensed (5 μl/well) to wells of a 96-well plate. Reagent A (100 μL) was added to each well and incubated for 10 minutes at 37° C. Reagent B (200 μL) was then added to each well and incubated for another 10 minutes at 37° C. After equilibration for 5 minutes at room temperature (about 25° C.), the abroad sorbance was measured on a plate reader at 550 nm.
Male Sprague Dawley rats (10-12 weeks old) were obtained from Charles River Labroad s pre-cannulated with right jugular catheters for sample collection. Rats were food deprived overnight (by removing food pellets from the cage) for approximately 16 hours with ad libitum access to water. Canulae were flushed with saline to remove heparin and to clear the catheter line 30 minutes prior to the first (basal) sample collection. Basal samples were collected in a staggered dose manner (e.g. vehicle, high dose, low dose, low dose, high dose, and vehicle). Rats were injected per oral (PO), 2 mL/kg with 5% HPBCD (Hydroxypropyl-β-cyclodextrin) or with drug in 5% HPBCD. Blood (500-700 μl) was drawn via catheter at 10, 20, 40, 60, 120, and 240 minutes post dosing, and saline (about 200 μl) was infused into the catheter to ensure patency. […]

The subject of test [4] is Male C57/B16 mice. The test is described as follows: NEFA assay, circulating free fatty acids in mice. The format is in vivo, mouse. As to conditions: FIG. 7. As to the method:
as §1
Male C57/B16 mice (8-10 weeks old; about 23 g) were food deprived (by removing food pellets from the cage) for 5 hours with ad libitum access to water. Animals were then dosed with vehicle (5% HPBCD) or drug via intraperitoneal (IP) injection at the desired concentration in a volume of 10 mL/kg. After 30 minutes, mice were euthanized via CO2 asphyxiation and about 300 μl of blood were immediately collected by cardiac puncture. The blood was transferred to an Eppendorf tube and capped on ice. The blood was then centrifuged on a table top centrifuge (4000 rpm at 4° C. for 10 minutes). Serum was collected in a new microfuge tube and re-centrifuged (4000 rpm at 4° C. for 10 minutes). Serum samples were dispensed (5 μl/well) to wells of a 96-well plate.

Test [5] addresses T1, GPR81. The test is described as follows: GPR81 [35S]GTPγS binding assay. It is filed as biochemical. To be noted: membranes of CHO-K1 cells stably transfected with GPR81. As to the method:
Compounds were screened for agonism of GPR81 (e.g. human GPR81) using a GTPγS binding assay and CHO-K1 cells stably transfected with GPR81.
GPR81 stably transfected CHO-K1 cells were grown in F-12 Kaighn's Modified Cell Culture Medium with 10% FBS, 2 mM L-glutamine, 1 mM sodium pyruvate and 400 μg/ml G418. For 15 cm^2 plates, cells were rinsed with 5 mL cold PBS and aspirated. Cold membrane scrape buffer (20 mM HEPES, 10 mM EDTA, pH 7.4) was added and cells were scraped off the plate and transferred to a 50 mL centrifuge tube. Cells were spun at 20,000 rpm for 17 minutes at 4° C. The supernatant was aspirated and the pellet was re-suspended in cold membrane wash buffer (30 mL, 20 mM HEPES, 0.1 mM EDTA, pH 7.4). Cells were spun at 20,000 rpm for 17 minutes at 4° C. The supernatant was aspirated away from the membrane pellet. The pellet may be frozen at −80° C. for later use or may be used immediately.
The membrane pellet was thawed (if frozen) on ice and homogenized briefly until in suspension using a polytron mixer (POLYTRON PT3100, probe PT-DA 3007/2 at setting of 7000 rpm). The membrane protein concentration was determined using a Bradford assay. The membrane protein was diluted to a protein concentration of 0.20 mg/mL in binding buffer (20 mM HEPES, pH 7.4, 100 mM NaCl, 10 mM MgCl2) for a final assay concentration of 5 μg/well. Compound plates to be screened were thawed (daughter plates with 5 μL compound@2 mM in 100% DMSO). The 2 mM compounds were diluted 1:50 with 245 μL GDP buffer (binding buffer plus GDP, Sigma-Aldrich Catalog #87127, ranging from 0.4 to 40 μM, made fresh before assay) to 40 μM in 2% DMSO. Compounds in GDP buffer (25 were added per well of a Scintistrip plate (Wallac Catalog #1450-501) and then 50 μL of membrane preparation (0.4 mg protein/mL) was added to each well. The plates were then covered with foil and incubated for 5-10 minutes at room temperature. Subsequently, 25 μL of diluted [^35S]GTPγS (Amersham Biosciences Catalog #SJ1320, about 2000 Ci/mmol (made by adding 5 μL [^35S]GTPγS stock into 10 ml binding buffer) was added to the wells. The plates were covered with foil and incubated on a shaker (Lab-Line model #1314, at setting of 4) for 60 minutes at room temperature. The assay was stopped by sealing the plates with plate covers and spinning the plates at 4000 rpm for 15 minutes at 22° C. The supernatant of each well was apirated using an eight-channel manifold and the plate was read in a Wallac Microbeta counter 1450 set up to detect ^35S.

T1 sequence (Q9BXC0 whole entry): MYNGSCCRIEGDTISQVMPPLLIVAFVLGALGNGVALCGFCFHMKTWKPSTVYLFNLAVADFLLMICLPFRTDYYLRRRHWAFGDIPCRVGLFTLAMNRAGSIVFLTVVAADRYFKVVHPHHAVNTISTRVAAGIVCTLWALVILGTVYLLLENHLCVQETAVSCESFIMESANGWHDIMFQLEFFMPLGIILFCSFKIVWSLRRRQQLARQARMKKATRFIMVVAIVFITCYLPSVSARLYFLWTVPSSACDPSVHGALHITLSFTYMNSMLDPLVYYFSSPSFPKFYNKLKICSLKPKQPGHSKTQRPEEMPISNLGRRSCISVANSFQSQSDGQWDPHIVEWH

As a reminder, the pEC50 is the EC50 on a negative log10 scale, so that one unit is a factor of ten. Higher therefore signals a low EC50. In turn, `Nc1nc2ccc(O)nc2n1-c1ccccc1` [Compound 9, 2-Amino-3-phenyl-3H-imidazo[4,5-b]pyridin-5-ol] showed a pEC50 in test [1] of 5.98.

For the compound `Oc1ccc2ncn(-c3ccccc3Cl)c2n1` [Compound 25, 3-(2-Chlorophenyl)-3H-imidazo[4,5-b]pyridin-5-ol], the inhibition of lipolysis entry in test [2] is reported as “inhibition of lipolysis”. For the same compound, the “circulating free fatty acids” value in test [3] and in test [4] was “significant decrease of circulating free fatty acids” in each case.

As to `Oc1ccc2ncn(-c3ccccc3C(F)(F)F)c2n1` [Compound 28, 3-(2-(Trifluoromethyl)phenyl)-3H-imidazo[4,5-b]pyridin-5-ol], the “circulating free fatty acids” value in test [4] is listed as “significant decrease of circulating free fatty acids”.

As for `Oc1ccc2ncn(C3CCCCCC3)c2n1` [Compound 48, 3-Cycloheptyl-3H-imidazo[4,5-b]pyridin-5-ol], the pEC50 in test [1] was 6.46.

In turn, `Oc1ccc2ncn(-c3cccc(Cl)c3F)c2n1` [Compound 50, 3-(3-Chloro-2-fluorophenyl)-3H-imidazo[4,5-b]pyridin-5-ol] had a pEC50 in test [1] of 5.56.

The compound `Oc1ccc2ncn(-c3ccc(Cl)cc3C(F)(F)F)c2n1` [Compound 56, 3-(4-Chloro-2-(trifluoromethyl)phenyl)-3H-imidazo[4,5-b]pyridin-5-ol] had a pEC50 in test [5] of 5.86.

In test [1], `Cc1c(F)cccc1-n1c(N)nc2ccc(O)nc21` [Compound 64, 2-Amino-3-(3-Fluoro-2-methylphenyl)-3H-imidazo[4,5-b]pyridin-5-ol] gave a pEC50 of 5.63.

With `Oc1ccc2ncn(C34CC5CC(CC(C5)C3)C4)c2n1` [Compound 114, 3-(Adamant-1-yl)-3H-imidazo[4,5-b]pyridin-5-ol], the pEC50 in test [5] was 7.52.

`Oc1ccc2nc(Cl)n(C3CCCCC3)c2n1` [Compound 127, 2-Chloro-3-cyclohexyl-3H-imidazo[4,5-b]pyridin-5-ol] showed a pEC50 in test [5] of 7.12.

For the compound `Oc1ccc2nc(Cl)n(-c3ccccc3C3CC3)c2n1` [Compound 133, 2-Chloro-3-(2-Cyclopropylphenyl)-3H-imidazo[4,5-b]pyridin-5-ol], the pEC50 in test [5] was 7.09.
